Where two headings read alike, the source gives them in different places.
Test system: C. acnes (BNCC 336649)
Settings: for Concentration with antimicrobial activity >50%: C. acnes; for Concentration with antimicrobial activity >50% / Category of in vitro test antimicrobial activity against C. acnes: supplementary Table 5; for Antimicrobial activity > 50% against C. acnes: broth microdilution, 48 h, OD 630 nm
Description: The strain of C. acnes (BNCC 336649) was cultured in Wilkins-Chalgren Anaerobe Broth (QingDao RiShui Bio-technologies, 11071) at 37 °C under an anaerobic atmosphere performed by a Labiophy HL-B automatic hypoxic workstation (Dalian, Liaoning Province, Labiophy HL-B), inflated with a gas mix of 15% carbon dioxide, 83% nitrogen, and 2% hydrogen.
Logarithmic phase growth bacteria were used for antimicrobial testing.
To determine the MIC values, the broth microdilution method was used. […] Briefly, peptide samples were prepared as a stock solution in water and then diluted. 180 μL of the bacterial suspension (10^7 CFU/mL) and 20 μL of the tested sample were added together into 96-Well Deep Well Plates and incubated 24 h for E. coli and S. aureus or 48 h for C. acnes and C. albicans. For each test, two columns of the plate were kept for sterility control (broth only) and growth control (broth with bacterial inoculums, no antibiotics). The optical density of cultures was measured at 630 nm by a microplate reader (SYNERGY-H1, BioTek, USA) to estimate bacterial growth. All experiments were conducted in triplicate. We used ciprofloxacin (CPFX) as the antibiotic control for antimicrobial testing.

Row | Sequence | Concentration with antimicrobial activity >50% | Antimicrobial activity > 50% against C. acnes (at 25 µg/mL) | Antimicrobial activity > 50% against C. acnes (at 50 µg/mL) | Antimicrobial activity > 50% against C. acnes (at 100 µg/mL) | Category of in vitro test antimicrobial activity against C. acnes
1 | GKLKKIWKNFGKIIK [AMP-20] | 25 µg/mL | Inhibit (A peptide was deemed to have antimicrobial activity if C. acnes growth was inhibited by more than 50% at a given concentration) | Inhibit (A peptide was deemed to have antimicrobial activity if C. acnes growth was inhibited by more than 50% at a given concentration) | Inhibit (A peptide was deemed to have antimicrobial activity if C. acnes growth was inhibited by more than 50% at a given concentration) | Medium AMP
2 | KIAKRLAKKILNAI [AMP-10] | 12.5 µg/mL | Inhibit (A peptide was deemed to have antimicrobial activity if C. acnes growth was inhibited by more than 50% at a given concentration) | Inhibit (A peptide was deemed to have antimicrobial activity if C. acnes growth was inhibited by more than 50% at a given concentration) | Inhibit (A peptide was deemed to have antimicrobial activity if C. acnes growth was inhibited by more than 50% at a given concentration) | Strong AMP
3 | NRWLKAAKVAAKVI [AMP-36] | no | No (A peptide was deemed to have antimicrobial activity if C. acnes growth was inhibited by more than 50% at a given concentration) | No (A peptide was deemed to have antimicrobial activity if C. acnes growth was inhibited by more than 50% at a given concentration) | No (A peptide was deemed to have antimicrobial activity if C. acnes growth was inhibited by more than 50% at a given concentration) | No AMP
4 | GFKRIVHRLTKWLA [AMP-11] | 12.5 µg/mL | Inhibit (A peptide was deemed to have antimicrobial activity if C. acnes growth was inhibited by more than 50% at a given concentration) | Inhibit (A peptide was deemed to have antimicrobial activity if C. acnes growth was inhibited by more than 50% at a given concentration) | Inhibit (A peptide was deemed to have antimicrobial activity if C. acnes growth was inhibited by more than 50% at a given concentration) | Strong AMP
5 | KLVKRVLKKLRKLF [AMP-8] | – | Inhibit (A peptide was deemed to have antimicrobial activity if C. acnes growth was inhibited by more than 50% at a given concentration) | Inhibit (A peptide was deemed to have antimicrobial activity if C. acnes growth was inhibited by more than 50% at a given concentration) | Inhibit (A peptide was deemed to have antimicrobial activity if C. acnes growth was inhibited by more than 50% at a given concentration) | Strong AMP
6 | KKLAGLAWKALRKAK [AMP-6] | 100 µg/mL | No (A peptide was deemed to have antimicrobial activity if C. acnes growth was inhibited by more than 50% at a given concentration) | No (A peptide was deemed to have antimicrobial activity if C. acnes growth was inhibited by more than 50% at a given concentration) | Inhibit (A peptide was deemed to have antimicrobial activity if C. acnes growth was inhibited by more than 50% at a given concentration) | Weak AMP
7 | SKILGKLTKAAKIAW [AMP-28] | no | No (A peptide was deemed to have antimicrobial activity if C. acnes growth was inhibited by more than 50% at a given concentration) | No (A peptide was deemed to have antimicrobial activity if C. acnes growth was inhibited by more than 50% at a given concentration) | No (A peptide was deemed to have antimicrobial activity if C. acnes growth was inhibited by more than 50% at a given concentration) | No AMP
8 | AKKALKAAAKIIKWL [AMP-19] | 25 µg/mL | Inhibit (A peptide was deemed to have antimicrobial activity if C. acnes growth was inhibited by more than 50% at a given concentration) | Inhibit (A peptide was deemed to have antimicrobial activity if C. acnes growth was inhibited by more than 50% at a given concentration) | Inhibit (A peptide was deemed to have antimicrobial activity if C. acnes growth was inhibited by more than 50% at a given concentration) | Medium AMP
9 | GLVSRLRRLVTPLL [AMP-4] | – | No (A peptide was deemed to have antimicrobial activity if C. acnes growth was inhibited by more than 50% at a given concentration) | Inhibit (A peptide was deemed to have antimicrobial activity if C. acnes growth was inhibited by more than 50% at a given concentration) | Inhibit (A peptide was deemed to have antimicrobial activity if C. acnes growth was inhibited by more than 50% at a given concentration) | Medium AMP
10 | FKRLQKLLFTLKQK [AMP-40] | no | No (A peptide was deemed to have antimicrobial activity if C. acnes growth was inhibited by more than 50% at a given concentration) | No (A peptide was deemed to have antimicrobial activity if C. acnes growth was inhibited by more than 50% at a given concentration) | No (A peptide was deemed to have antimicrobial activity if C. acnes growth was inhibited by more than 50% at a given concentration) | No AMP
11 | FLGQLKNFFKKLAS [AMP-7] | – | No (A peptide was deemed to have antimicrobial activity if C. acnes growth was inhibited by more than 50% at a given concentration) | Inhibit (A peptide was deemed to have antimicrobial activity if C. acnes growth was inhibited by more than 50% at a given concentration) | Inhibit (A peptide was deemed to have antimicrobial activity if C. acnes growth was inhibited by more than 50% at a given concentration) | Medium AMP
12 | GIGALVKFLPKLFK [AMP-41] | 25 µg/mL | Inhibit (A peptide was deemed to have antimicrobial activity if C. acnes growth was inhibited by more than 50% at a given concentration) | Inhibit (A peptide was deemed to have antimicrobial activity if C. acnes growth was inhibited by more than 50% at a given concentration) | Inhibit (A peptide was deemed to have antimicrobial activity if C. acnes growth was inhibited by more than 50% at a given concentration) | Medium AMP
13 | VKRILKWAFK [AMP-1] | – | No (A peptide was deemed to have antimicrobial activity if C. acnes growth was inhibited by more than 50% at a given concentration) | Inhibit (A peptide was deemed to have antimicrobial activity if C. acnes growth was inhibited by more than 50% at a given concentration) | Inhibit (A peptide was deemed to have antimicrobial activity if C. acnes growth was inhibited by more than 50% at a given concentration) | Medium AMP
14 | KKLAGLAKKWWKPLR [AMP-22] | – | No (A peptide was deemed to have antimicrobial activity if C. acnes growth was inhibited by more than 50% at a given concentration) | Inhibit (A peptide was deemed to have antimicrobial activity if C. acnes growth was inhibited by more than 50% at a given concentration) | Inhibit (A peptide was deemed to have antimicrobial activity if C. acnes growth was inhibited by more than 50% at a given concentration) | Medium AMP
15 | RISSLLKRLAIKIK [AMP-16] | 25 µg/mL | Inhibit (A peptide was deemed to have antimicrobial activity if C. acnes growth was inhibited by more than 50% at a given concentration) | Inhibit (A peptide was deemed to have antimicrobial activity if C. acnes growth was inhibited by more than 50% at a given concentration) | Inhibit (A peptide was deemed to have antimicrobial activity if C. acnes growth was inhibited by more than 50% at a given concentration) | Medium AMP
16 | FLKKLRTAVLKLTKG [AMP-17] | 25 µg/mL | Inhibit (A peptide was deemed to have antimicrobial activity if C. acnes growth was inhibited by more than 50% at a given concentration) | Inhibit (A peptide was deemed to have antimicrobial activity if C. acnes growth was inhibited by more than 50% at a given concentration) | Inhibit (A peptide was deemed to have antimicrobial activity if C. acnes growth was inhibited by more than 50% at a given concentration) | Medium AMP

— paper PMC10894229, “Novel antimicrobial peptides against Cutibacterium acnes designed by deep learning” (Scientific Reports, 2024)
